According to patent US20240008971A1, “Ophthalmic Implant” (Nacuity Pharmaceuticals, Inc., priority 2022, published 2024):
“Also recorded” adds a separate entry of the source. One block for each molecule: values may come before it.

Tests used:
[1] = target: glutamate cysteine ligase (GCL, EC 6.3.2.2); conditions: read-out: Ki (nonallosteric competitive inhibition of GCL); cited from earlier work
[2] = oral dose of 600 mg in humans; cited from earlier work
retinas of diabetic rats = conditions: cited from earlier work
rd10 mice = conditions: cited from earlier work
[3] = system: H2O2-induced cataract in isolated porcine lens; assay: H2O2-induced cataract in isolated porcine lens; format: cell-based, pigs; conditions: for H2O2-induced cataract: 24 hours pre-incubation, then H2O2 plus GO 6 hours
Description: Method: Lenses were harvested from fresh eyes from pigs. These lenses were first incubated in 4-5 mL TC-199 medium and 1% pig serum in a 12-well plate for two hours. At the end of the incubation, lenses were imaged under darkfield microscopy and only clear, transparent lenses were used for further experimentation. Lens were pre-incubated with NAC, NACA, diNACA for 24 hours. After the pretreatment, the lenses were transferred to media containing hydrogen peroxide (H2O2) plus GO for maintaining a constant H2O2 level during incubation similarly to a published method (Wang et al., 1997). At the end of the 6-hour incubation, lenses were imaged under darkfield microscopy (FIG. 3).

[4] = Repeated dose topical ocular administration in rabbit: NACA in aqueous humor (LC-MS); format: in vivo, Dutch Belted rabbits
Description: A study was conducted to evaluate effects of diNACA or NACA topical ocular dosing in rabbit. Ophthalmic formulations were developed containing either 1% diNACA or 1% NACA that were used for repeated topical ocular instillation to Dutch Belted rabbits. Three animals per group were dosed four times a day at approximately 8:00 AM, 11:00 AM, 2:00 PM, and 4:00 PM on Days 1-6, and once on Day 7 at approximately 8:00 AM, via bilateral topical administration with each test article. Ocular tolerability was assessed at baseline and prior to the first daily dose by means of scoring chemosis, discharge, and hyperemia (Draize scoring). Ocular tissue was harvested at necropsy (Day 7). A qualified analytical LC-MS method was developed and used to quantitate NACA levels in aqueous humor (AH).

[5] = system: GO-induced cataract in isolated rat lens; assay: GO-induced cataract in isolated rat lens; format: cell-based, Wistar rats; conditions: for lens opacities after GO-cataract induction: 10 mM pre-treatment 18 hours, then 1 μg/mL GO 24 hours, vs GO-cataract induction alone; for visibility of underlying grid after GO-cataract induction: 10 mM pre-treatment, then GO, vs GO group
Description: (§1) Lenses were extracted from 3-week-old male or female Wistar rats using an existing Animal Ethics Approval for tissue collection. Rats were euthanized using CO2, eyes were enucleated and lenses dissected from the globe and incubated in either Dulbecco's modified eagle's medium (low glucose; DMEM; Savion et al., 2019) or Media 199, no phenol red with Glutamine, with 1% penicillin, streptomycin, neomycin mixture for 6 hours, under normoxic conditions with 5% CO2. At the end of the 6-hour incubation, lenses were imaged under darkfield and brightfield microscopy and only clear, transparent lenses were used for further experimentation.
(§2) Control group: Lenses were incubated for a further 18 hours at which time, darkfield and brightfield images were taken. Lenses were placed in fresh media and then incubated for another 24 hours in DMEM or M199 with 1% PSN. Images were then taken to assess lens transparency.
(§3) 10 mM diNACA pre-treatment group: After the initial 6-hour incubation, clear lenses were cultured in 10 mM diNACA (NPI-002) for 18 hours. Images were taken, and then lenses were placed in fresh media containing 1 μg/mL of glucose oxidase (GO). Lenses were then incubated for a further 24 hours, after which images were taken to assess lens transparency
(§4) 10 mM NACA pre-treatment group: After the initial 6-hour incubation, clear lenses were cultured in 10 mM NACA (NPI-001) for 18 hours. Images were taken, and then lenses placed in fresh media containing 1 μg/mL of GO. Lenses were then incubated for a further 24 hours, after which images were taken to assess lens transparency
Method: Isolated rat lenses were pre-treated with NACA or diNACA followed by GO.

isolated rat lens = assay: Effect of NACA or diNACA alone on rat lens transparency; format: cell-based, Wistar rats; conditions: 10 mM, no oxidative agent
Description: as §1, §2, §3, §4

rabbit = assay: NPI-002 IVT implant single dose 3-week safety study in rabbit; format: in vivo, New Zealand White rabbits; conditions: resolved by Day 23, associated with 22-gauge needle injection procedure
Description: A study was conducted to evaluate intravitreal injection of di-NACA as suspension or implant and NACA solution in rabbit. The objectives were to assess safety and whether the implant could deliver diNACA, NACA, and NAC to ocular tissues. A sterile intravitreal implant containing diNACA was prepared (Formulation 1896-08, a fast-releasing implant; FIG. 7). Female New Zealand White rabbits were administered two NPI-002 IVT implants per eye (total dose of NPI-002, 0.8 mg/eye). One group of animals received IVT placebo implants without any test article.
Prior to placement on study, an ophthalmic examination was conducted on each rabbit including slit-lamp biomicroscopy and indirect ophthalmoscopy. Ocular findings were scored according to a modified McDonald-Shadduck Scoring.
Clinical ophthalmic examinations were performed at baseline and on Days 8 and 23 post-dose. General health observations were performed daily. Body weights were recorded at baseline and prior to termination.
Sterile NPI-002 or placebo IVT implants were provided pre-loaded in 22 G beveled needle with wire plunger (1 implant/needle) and injected into VH. NPI-002 suspension and NPI-001 solution were prepared in sterile phosphate buffer and injected into VH.
Animals were euthanized on Day 8, 15, or 23, and ocular tissue was collected and […]

Molecule: N[C@@H](CCC(=O)N[C@@H](CS)C(=O)NCC(=O)O)C(=O)O [GSH, c-L-glutamyl-L-cysteinyl-glycine]
Ki [1]: 2300 µM

Molecule: CC(=O)N[C@@H](CS)C(=O)O [NAC, N-acetylcysteine]
time after administration at which no NAC is detectable [2]: 10 to 12 h | retinal pathological changes (retinopathy) (retinas of diabetic rats; 3 and 5 months): alleviated the pathological changes | reactive oxygen species contents in the retinas (retinas of diabetic rats; most significantly at 5 months): decreased reactive oxygen species | VEGF and ICAM-1 expression in retinal blood vessels (retinas of diabetic rats; returned to basal levels after 5-month treatment): up-regulation was attenuated | oxidative damage, cone survival and function (rd10 mice; rd10 mice, NAC in drinking water, vs untreated): dose-dependent, statistically significant reduction in oxidative damage and improvements in cone survival and function | H2O2-induced cataract [3]: dose-dependently prevented H2O2-induced cataract

ocular penetration following topical ocular dosing [4]: penetrates the eye
Molecule: CC(=O)N[C@@H](CSSC[C@H](NC(C)=O)C(N)=O)C(N)=O [diNACA, (2R,2R′)-3,3′-disulfanediyl bis(2-acetamidopropanamide)]
lens opacities after GO-cataract induction [5]: reduced lens opacities | lens opacities after GO-cataract induction ([5]; listed as NPI-002): prevented oxidative-induced cataract | visibility of underlying grid after GO-cataract induction [5]: improved grid visibility | H2O2-induced cataract [3]: dose-dependently prevented H2O2-induced cataract | H2O2-induced cataract ([3]; listed as NPI-002): prevented oxidative-induced cataract | protective effects on the lens as compared with NAC, NACA ([3]; H2O2-induced cataract): better protective effects on the lens | lens transparency after compound alone (isolated rat lens): remained absolutely clear and transparent; also recorded: tolerated exposure to diNACA better than NACA | lens transparency after compound alone (isolated rat lens; listed as NPI-002): maintained lens transparency slightly better than NPI-001 (NACA) alone | clinical ophthalmic examination findings on Day 8 (rabbit): Mild to moderate conjunctival congestion, swelling and discharge

Molecule: N-acetylcysteine amide [NACA]
visual parameters (rd10 mice; mouse model of RP): improve, to a greater extent than NAC, visual parameters | preservation of cone function and survival compared to NAC (rd10 mice; rd10 mice, 7-fold lower dose than NAC): greater preservation of cone function and survival | lens opacities after GO-cataract induction [5]: reduced opacities compared to cataract induction alone | visibility of underlying grid after GO-cataract induction [5]: more clearly visible | H2O2-induced cataract [3]: dose-dependently prevented H2O2-induced cataract | lens transparency after compound alone (isolated rat lens): developed a subtle thin rim opacity on the edge; also recorded: slight ring opacity developed
